Earlier results on one molecule are cited in patent US20060034895A1, “Supplement food for low blood glucose recovery” (priority 2003, published 2006).

On to `O=C[C@H](O)[C@@H](O)[C@H](O)[C@H](O)CO` [D-glucose], for which the solubility in alcohol entry (alcohol) is “cannot melt into an alcohol easily”. Also, the solubility in ether result (ether) is “insoluble to ether”. Moreover, the solubility in water result (water) was “easy to melt into water”.
